Measured values reported in PMC6320941, “Synthesis and Evaluation of 3-Substituted-4-(quinoxalin-6-yl) Pyrazoles as TGF-β Type I Receptor Kinase Inhibitors” (Molecules, 2018).

Experiments:
ALK5 = target: T1, ALK5 (Homo sapiens, UniProt P36897); test: Radiometric 33PanQinase ALK5 kinase assay (ProQinase), casein substrate; assay type: biochemical; settings: for remaining activity at 10 µM: compound at 10 μM, in duplicate, read-out: Residual Activity (%) ALK5; for Selectivity Index: IC50 of p38α/IC50 of ALK5; for ALK5 inhibitory activity in words: at up to 5.0 μM for 18a–d, 'at up to 2.26 μM' for pyrimidin-4-yl compounds
T1 sequence (P36897 205-495 limits assumed): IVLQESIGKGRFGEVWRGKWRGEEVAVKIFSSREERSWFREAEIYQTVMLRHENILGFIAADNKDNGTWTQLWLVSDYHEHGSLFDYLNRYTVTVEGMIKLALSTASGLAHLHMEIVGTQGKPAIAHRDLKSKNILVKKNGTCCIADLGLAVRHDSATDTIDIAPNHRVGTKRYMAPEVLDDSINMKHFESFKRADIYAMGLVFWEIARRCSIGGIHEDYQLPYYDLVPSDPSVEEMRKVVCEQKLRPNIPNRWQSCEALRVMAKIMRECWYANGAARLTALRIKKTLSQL
Experimental: To investigate whether compounds 14a–d, 15a–d, 16a–d, 17a–d, 18a–d, and 19a–d would inhibit ALK5, a kinase assay for preliminary screening was performed using the purified human ALK5 kinase domain produced in Sf9 insect cells and compounds at 10 μM.
(§1) All kinase experiments were completed by the ProQinase (Freiburg, Germany). All protein kinases were expressed in Sf9 insect cells or in E. coli as recombinant GST-fusion proteins or His-tagged proteins, either as full-length or enzymatically active fragments. All kinases were obtained from human cDNAs and purified by either GSH-affinity chromatography or immobilized metal. The purity of the protein kinases was examined by SDS-PAGE/Coomassie staining. The identity was checked by mass spectroscopy.
(§2) A radiometric protein kinase assay (^33PanQinase® activity assay) was used for measuring the kinase activity of the two protein kinases. All kinase assays were performed in 96-well FlashPlates^TM from PerkinElmer (Boston, MA, USA) in 50 μL reaction volumes. The reaction cocktail was pipetted in four steps in the following order: 20 μL of assay buffer (standard buffer), 5 μL of ATP solution (in H2O), 5 μL of test compound (in 10% DMSO), 20 μL enzyme/substrate mix.
(§3) The assay for all protein kinases contained 70 mM HEPES-NaOH pH 7.5, 3 mM MgCl2, 3 mM MnCl2, 3 μM Na-orthovanadate, 1.2 mM DTT, 50 μg/mL PEG20000, ATP, [γ-^33P]-ATP, protein kinase, and substrate.
(§4) The reaction cocktail was incubated at 30 °C for 60 min. The reaction was halted with 50 μL of 2% (v/v) H3PO4, plates were aspirated and washed two times with 200 μL 0.9% (w/v) NaCl. Incorporation of ^33Pi was established with a microplate scintillation counter (PerkinElmer, Boston, MA, USA). All assays were performed with a BeckmanCoulter/SAGIAN™ Core System.

p38α MAP kinase = p38α MAP kinase (Homo sapiens, UniProt Q16539); test: Radiometric 33PanQinase p38α MAP kinase assay (ProQinase), ATF2 substrate; assay type: biochemical; settings: for remaining activity at 10 µM: compound at 10 μM, in duplicate, read-out: Residual Activity (%) p38α
Text: We selected p38α MAP kinase to survey the selectivity profile of this series of compounds because its kinase domain is among the most homologous to that of ALK5 [27].
as §1, §2, §3, §4

Sequence of p38α MAP kinase (Q16539 whole entry, the tested form may be a part): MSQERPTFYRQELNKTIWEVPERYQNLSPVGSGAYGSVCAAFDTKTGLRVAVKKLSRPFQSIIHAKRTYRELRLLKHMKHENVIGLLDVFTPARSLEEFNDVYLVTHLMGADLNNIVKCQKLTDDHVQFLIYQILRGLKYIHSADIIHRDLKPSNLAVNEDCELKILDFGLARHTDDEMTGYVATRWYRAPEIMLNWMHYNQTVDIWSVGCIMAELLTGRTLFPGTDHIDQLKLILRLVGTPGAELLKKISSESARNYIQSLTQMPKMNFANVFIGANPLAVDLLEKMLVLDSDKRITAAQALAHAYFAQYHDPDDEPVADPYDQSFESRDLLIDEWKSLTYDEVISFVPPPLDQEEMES

| remaining activity at 10 µM (ALK5) | IC50 (p38α MAP kinase) | remaining activity at 10 µM (p38α MAP kinase) | melting point | IC50 (ALK5) | Selectivity Index (ALK5) | fold more selective than compound 3 (LY-2157299) against p38α MAP kinase (ALK5) | inhibition at 10 µM (ALK5; at 10 µM) | ALK5 inhibitory activity in words (ALK5) | SMILES |
| --- | --- | --- | --- | --- | --- | --- | --- | --- | --- |
| 85% | – | 110% | 212.5 to 214 °C | – | – | – | – | – | CN(C)c1cccc(-c2nn(CC(=O)Nc3ccccc3)cc2-c2ccc3nccnc3c2)n1 [Compound 14a, 2-(3-(6-(Dimethylamino)pyridin-2-yl)-4-(quinoxalin-6-yl)-1H-pyrazol-1-yl)-N-phenylacetamide] |
| 84% | – | 118% | 190.5 to 193 °C | – | – | – | – | – | CN(C)c1cccc(-c2nn(CC(=O)Nc3ccccc3F)cc2-c2ccc3nccnc3c2)n1 [Compound 14b, 2-(3-(6-(Dimethylamino)pyridin-2-yl)-4-(quinoxalin-6-yl)-1H-pyrazol-1-yl)-N-(2-fluorophenyl)acetamide] |
| 37% | – | 121% | 176.5 to 178.5 °C | – | – | – | – | – | CN(C)c1cccc(-c2nn(CC(=O)Nc3cccc(F)c3)cc2-c2ccc3nccnc3c2)n1 [Compound 14c, 2-(3-(6-(Dimethylamino)pyridin-2-yl)-4-(quinoxalin-6-yl)-1H-pyrazol-1-yl)-N-(3-fluorophenyl)acetamide] |
| 95% | – | 121% | 218.5 to 221.5 °C | – | – | – | – | – | CN(C)c1cccc(-c2nn(CC(=O)Nc3cccc(C#N)c3)cc2-c2ccc3nccnc3c2)n1 [Compound 14d, N-(3-Cyanophenyl)-2-(3-(6-(dimethylamino)pyridin-2-yl)-4-(quinoxalin-6-yl)-1H-pyrazol-1-yl)acetamide] |
| 95% | – | 118% | – | – | – | – | – | – | CN(C)c1cccc(-c2c(-c3ccc4nccnc4c3)cnn2CC(=O)Nc2ccccc2)n1 [Compound 15a, 2-(5-(6-(Dimethylamino)pyridin-2-yl)-4-(quinoxalin-6-yl)-1H-pyrazol-1-yl)-N-phenylacetamide] |
| 87% | – | 117% | 130.2 to 133 °C | – | – | – | – | – | CN(C)c1cccc(-c2c(-c3ccc4nccnc4c3)cnn2CC(=O)Nc2ccccc2F)n1 [Compound 15b, 2-(5-(6-(Dimethylamino)pyridin-2-yl)-4-(quinoxalin-6-yl)-1H-pyrazol-1-yl)-N-(2-fluorophenyl)acetamide] |
| 88% | – | 109% | 146.5 to 147.6 °C | – | – | – | – | – | CN(C)c1cccc(-c2c(-c3ccc4nccnc4c3)cnn2CC(=O)Nc2cccc(F)c2)n1 [Compound 15c, 2-(5-(6-(Dimethylamino)pyridin-2-yl)-4-(quinoxalin-6-yl)-1H-pyrazol-1-yl)-N-(3-fluorophenyl)acetamide] |
| 94% | – | 109% | 145.5 to 148 °C | – | – | – | – | – | CN(C)c1cccc(-c2c(-c3ccc4nccnc4c3)cnn2CC(=O)Nc2cccc(C#N)c2)n1 [Compound 15d, N-(3-Cyanophenyl)-2-(5-(6-(dimethylamino)pyridin-2-yl)-4-(quinoxalin-6-yl)-1H-pyrazol-1-yl)acetamide] |
| 5% | – | 98% | 190.2 to 192.5 °C | – | – | – | – | – | Cc1csc(-c2nn(CC(=O)Nc3ccccc3)cc2-c2ccc3nccnc3c2)n1 [Compound 16a, 2-(3-(4-Methylthiazol-2-yl)-4-(quinoxalin-6-yl)-1H-pyrazol-1-yl)-N-phenylacetamide] |
| 5% | – | 103% | 197.5 to 200 °C | – | – | – | – | – | Cc1csc(-c2nn(CC(=O)Nc3ccccc3F)cc2-c2ccc3nccnc3c2)n1 [Compound 16b, N-(2-Fluorophenyl)-2-(3-(4-methylthiazol-2-yl)-4-(quinoxalin-6-yl)-1H-pyrazol-1-yl)acetamide] |
| 3% | – | 101% | 212.1 to 213.5 °C | – | – | – | – | – | Cc1csc(-c2nn(CC(=O)Nc3cccc(F)c3)cc2-c2ccc3nccnc3c2)n1 [Compound 16c, N-(3-Fluorophenyl)-2-(3-(4-methylthiazol-2-yl)-4-(quinoxalin-6-yl)-1H-pyrazol-1-yl)acetamide] |
| 46% | – | 68% | – | – | – | – | – | – | Cc1csc(-c2c(-c3ccc4nccnc4c3)cnn2CC(=O)Nc2ccccc2)n1 [Compound 17a, 2-(5-(4-Methylthiazol-2-yl)-4-(quinoxalin-6-yl)-1H-pyrazol-1-yl)-N-phenylacetamide] |
| 73% | – | 54% | – | – | – | – | – | – | Cc1csc(-c2c(-c3ccc4nccnc4c3)cnn2CC(=O)Nc2ccccc2F)n1 [Compound 17b, N-(2-Fluorophenyl)-2-(5-(4-methylthiazol-2-yl)-4-(quinoxalin-6-yl)-1H-pyrazol-1-yl)acetamide] |
| 69% | – | 66% | – | – | – | – | – | – | Cc1csc(-c2c(-c3ccc4nccnc4c3)cnn2CC(=O)Nc2cccc(F)c2)n1 [Compound 17c, N-(3-Fluorophenyl)-2-(5-(4-methylthiazol-2-yl)-4-(quinoxalin-6-yl)-1H-pyrazol-1-yl)acetamide] |
| 58% | – | 97% | – | – | – | – | – | – | Cc1csc(-c2c(-c3ccc4nccnc4c3)cnn2CC(=O)Nc2cccc(C#N)c2)n1 [Compound 17d, N-(3-Cyanophenyl)-2-(5-(4-methylthiazol-2-yl)-4-(quinoxalin-6-yl)-1H-pyrazol-1-yl)acetamide] |
| 5% | > 10 µM | 102% | – | 0.57 µM | >17 | – | – | – | Cc1csc(-c2nn(CC(=S)Nc3ccccc3)cc2-c2ccc3nccnc3c2)n1 [Compound 19a, 2-(3-(4-Methylthiazol-2-yl)-4-(quinoxalin-6-yl)-1H-pyrazol-1-yl)-N-phenylethanethioamide] |
| 2% | > 10 µM | 92% | – | 0.28 µM | >35 | 9.0 fold | 98% | – | Cc1csc(-c2nn(CC(=S)Nc3ccccc3F)cc2-c2ccc3nccnc3c2)n1 [Compound 19b, N-(2-Fluorophenyl)-2-(3-(4-methylthiazol-2-yl)-4-(quinoxalin-6-yl)-1H-pyrazol-1-yl)ethanethioamide] |
| 2% | > 10 µM | 109% | – | 0.33 µM | >30 | – | – | – | Cc1csc(-c2nn(CC(=S)Nc3cccc(F)c3)cc2-c2ccc3nccnc3c2)n1 [Compound 19c, N-(3-Fluorophenyl)-2-(3-(4-methylthiazol-2-yl)-4-(quinoxalin-6-yl)-1H-pyrazol-1-yl)ethanethioamide] |
| 13% | > 10 µM | 105% | – | 0.37 µM | >27 | – | – | – | Cc1csc(-c2nn(CC(=S)Nc3cccc(C#N)c3)cc2-c2ccc3nccnc3c2)n1 [Compound 19d, N-(3-Cyanophenyl)-2-(3-(4-methylthiazol-2-yl)-4-(quinoxalin-6-yl)-1H-pyrazol-1-yl)ethanethioamide] |
| – | > 10 µM | – | – | > 10 µM | – | – | – | no significant ALK5 inhibition activity | Fc1ccccc1NC(=S)Cn1cc(-c2ccc3nccnc3c2)c(-c2ccncn2)n1 [Compound 27b, N-(2-Fluorophenyl)-2-(3-(pyrimidin-4-yl)-4-(quinoxalin-6-yl)-1H-pyrazol-1-yl)ethanethioamide] |
| – | > 10 µM | – | – | 2.26 µM | >4 | – | – | no significant ALK5 inhibition activity | N#Cc1cccc(NC(=S)Cn2cc(-c3ccc4nccnc4c3)c(-c3ccncn3)n2)c1 [Compound 27d, N-(3-Cyanophenyl)-2-(3-(pyrimidin-4-yl)-4-(quinoxalin-6-yl)-1H-pyrazol-1-yl)ethanethioamide] |

| SMILES | remaining activity at 10 µM (ALK5) | IC50 (p38α MAP kinase) | remaining activity at 10 µM (p38α MAP kinase) | melting point | IC50 (ALK5) | Selectivity Index (ALK5) | fold more selective than compound 3 (LY-2157299) against p38α MAP kinase (ALK5) | inhibition at 10 µM (ALK5; at 10 µM) | ALK5 inhibitory activity in words (ALK5) |
| --- | --- | --- | --- | --- | --- | --- | --- | --- | --- |
| Cc1cccc(-c2nn3c(c2-c2ccnc4ccc(C(N)=O)cc24)CCC3)n1 [Compound 3, LY-2157299, reference compound] | 1% | 0.49 µM | 4% | – | – | – | – | – | – |
